The values that follow are results of earlier work, collected in US20210319872A1, “DRUG AND DEVICE COMBINATION PRODUCTS WITH IMPROVED SAFETY AND EFFICACY PROFILES” (priority 2016, published 2021).

Each structure is given as a SMILES string.

The conditions of this series: in vivo.

Take `CCCN(CCC)CCc1cccc2c1CC(=O)N2` [Ropinirole (Requip)]: the Abdominal pain entry is “Gastrointestinal: Abdominal pain (6% to 7%), Constipation (4% to”; the Constipation entry is “Gastrointestinal: Abdominal pain (6% to 7%), Constipation (4% to”; the Dyskinesia entry is “syndrome, 11%), Dyskinesia (13% to 34%), Headache (6%),”; the Fatigue result is “Other: Fatigue (8% to 11%)”. Further, the Hallucinations entry is on record as “Psychiatric: Hallucinations (5% to 10%)”; the Headache result was “syndrome, 11%), Dyskinesia (13% to 34%), Headache (6%),”; the Hypotension entry is listed as “Cardiovascular: Hypotension (2% to 25%), Orthostatic hypotension”; the Nausea is reported as 5%), Nausea (11% to 60%), Vomiting (7% to 12%). The Orthostatic hypotension result is listed as “(Up to 23%)”; the Syncope result is given as “disease, 1% to 12%; restless leg syndrome, 1%)”; the Vomiting was 5%), Nausea (11% to 60%), Vomiting (7% to 12%).

On to `C=CCC1(C(C)CCC)C(=O)NC(=O)NC1=O` (centres unmarked) [Seconal (secobarbital)], for which the “Complex mannerisms - behavior” value is “Psychiatric: Complex mannerisms - behavior (Less than 1%.)”; the Liver damage result is “Hepatic: Liver damage (less than 1%)”; the “Megaloblastic anemia, With prolonged use” value is under 1%); the “Serious side effect, Other” value is listed as “Other: Drug dependence, Withdrawal sign or symptom”. Besides, the Somnolence result was “Neurologic: Somnolence (1% to 3%)”.

In the case of `OCCOCCN1CCN(C2=Nc3ccccc3Sc3ccccc32)CC1` [Seroquel (Quetiapine)], the Abdominal pain result is recorded as “Gastrointestinal: Abdominal pain (3% to 7%), Constipation (2% to”; the Agitation result was “Psychiatric: Agitation (6% to 20%)”; the Asthenia result is given as “Neurologic: Asthenia (Up to 10%), Dizziness (8% to 19%),”; the Backache entry is “Musculoskeletal: Backache (3% to 5%)”. For the same compound, the Dizziness result is recorded as “Neurologic: Asthenia (Up to 10%), Dizziness (8% to 19%),”; the Extrapyramidal disease result is “Extrapyramidal disease (1.1% to 12.9%), Headache (17% to 21%),”; the Fatigue entry is reported as “Other: Fatigue (3% to 14%), Pain (7%)”; the Headache entry was “Extrapyramidal disease (1.1% to 12.9%), Headache (17% to 21%),”. For the same compound, the Increased appetite is recorded as 11%), Increased appetite (2% to 12%), Indigestion (2% to 7%),; the Increased liver enzymes entry was “Hepatic: Increased liver enzymes (1% to 6%)”; the Indigestion is 11%), Increased appetite (2% to 12%), Indigestion (2% to 7%),; the Insomnia entry is reported as “Insomnia (8% to 12%), Lethargy (1% to 5%), Somnolence (18% to”. Further, the Lethargy result was “Insomnia (8% to 12%), Lethargy (1% to 5%), Somnolence (18% to”; the Nasal congestion entry is on record as “Respiratory: Nasal congestion (3% to 5%), Pharyngitis (4% to 6%)”; the Nausea result was “Nausea (Pediatric, 6% to 10%), Vomiting (Pediatric, 7% to 8%),”; the Neutropenia result is given as “Hematologic: Agranulocytosis, Leukopenia, Neutropenia (0.3% to”. Besides, the Orthostatic hypotension result is reported as “Orthostatic hypotension (Up to 7%), Tachycardia (Up to 6%)”; the Pain result is given as “Other: Fatigue (3% to 14%), Pain (7%)”; the Pharyngitis entry is recorded as “Respiratory: Nasal congestion (3% to 5%), Pharyngitis (4% to 6%)”; the “Prolonged QT interval” value was “Cardiovascular: Prolonged QT interval (0.1% to less than 1%),”. The Seizure result was “Neurologic: Seizure (0.05% to 0.5%), Tardive dyskinesia”; the “Serious side effect, Cardiovascular” value was “Sudden cardiac death, Syncope (0.3% to 1%)”; the “Serious side effect, Endocrine metabolic” value was “Endocrine metabolic: Diabetic ketoacidosis”; the “Serious side effect, Gastrointestinal” value is given as “Gastrointestinal: Pancreatitis”. Further, the “Serious side effect, Hematologic” value is “Hematologic: Agranulocytosis, Leukopenia, Neutropenia (0.3% to”; the “Serious side effect, Immunologic” value was “Immunologic: Anaphylaxis”; the “Serious side effect, Neurologic” value was “Neurologic: Seizure (0.05% to 0.5%), Tardive dyskinesia”; the “Serious side effect, Other” value is recorded as “Other: Neuroleptic malignant syndrome”. Further, the “Serious side effect, Psychiatric” value was “Psychiatric: Suicidal thoughts”; the “Serious side effect, Reproductive” value was “Reproductive: Priapism”; the Serum cholesterol raised result is “Endocrine metabolic: Serum cholesterol raised (7% to 18%), Serum”; the Serum triglycerides raised entry is “triglycerides raised (8% to 28%), Weight gain (3% to 28%)”. Further, the Somnolence entry is given as “Insomnia (8% to 12%), Lethargy (1% to 5%), Somnolence (18% to”; the Syncope entry is recorded as “Sudden cardiac death, Syncope (0.3% to 1%)”; the Tachycardia result was “Orthostatic hypotension (Up to 7%), Tachycardia (Up to 6%)”; the Tremor is 57%), Tremor (2% to 8%). The Vomiting result was “Nausea (Pediatric, 6% to 10%), Vomiting (Pediatric, 7% to 8%),”; the Weight gain result is on record as “triglycerides raised (8% to 28%), Weight gain (3% to 28%)”; the Xerostomia entry is recorded as “Xerostomia (Adult, 9% to 44%; pediatric, 4% to 10%)”.

Consider `CN[C@H]1CC[C@@H](c2ccc(Cl)c(Cl)c2)c2ccccc21` [Sertraline (Zoloft)], for which the Abnormal ejaculation result is “Reproductive: Abnormal ejaculation (7% to 19%), Reduced libido”; the Constipation result is on record as “Gastrointestinal: Constipation (3% to 8%), Diarrhea (13% to 24%),”; the Diarrhea entry is “Gastrointestinal: Constipation (3% to 8%), Diarrhea (13% to 24%),”; the Dizziness result is “Neurologic: Dizziness (6% to 17%), Headache (25%), Insomnia”. For the same compound, the Fatigue entry is on record as “Other: Fatigue (10% to 16%)”; the Headache result was “Neurologic: Dizziness (6% to 17%), Headache (25%), Insomnia”; the Indigestion entry is on record as “Indigestion (6% to 13%), Nausea (13% to 30%), Nausea and”; the Insomnia result was “(12% to 28%), Somnolence (2% to 15%), Tremor (5% to 11%)”. In addition, the Nausea result is listed as “Indigestion (6% to 13%), Nausea (13% to 30%), Nausea and”; the Nausea and vomiting entry was “vomiting (2% to 30%)”; the Reduced libido entry is listed as “(up to 11%)”; the Somnolence result was “(12% to 28%), Somnolence (2% to 15%), Tremor (5% to 11%)”. Also, the Tremor entry is reported as “(12% to 28%), Somnolence (2% to 15%), Tremor (5% to 11%)”.

As to `CCN(C(C)=O)c1cccc(-c2ccnc3c(C#N)cnn23)c1` [Sonata (zaleplon)], the Anaphylaxis result is “Immunologic: Anaphylaxis (rare)”; the Angioedema result was “Other: Angioedema (rare)”; the Depression result is recorded as “Depression (at least 1%), Suicidal behavior, Suicidal thoughts”; the Dizziness result is “Neurologic: Dizziness (7% to 9%), Headache (30% to 42%)”. Moreover, the Drug withdrawal seizure result was “Neurologic: Drug withdrawal seizure (rare)” and the Headache result is “Neurologic: Dizziness (7% to 9%), Headache (30% to 42%)”.
